The source of these data is patent publication US9637469B2, “Pyridine derivative” (Teijin Pharma Limited, priority 2012, dated 2017).

One assay addresses T1, human URAT1 (Homo sapiens, UniProt Q96S37).
T1 construct: Full-length cDNA of human URAT1 (hURAT1)
T1 sequence (Q96S37 1-553): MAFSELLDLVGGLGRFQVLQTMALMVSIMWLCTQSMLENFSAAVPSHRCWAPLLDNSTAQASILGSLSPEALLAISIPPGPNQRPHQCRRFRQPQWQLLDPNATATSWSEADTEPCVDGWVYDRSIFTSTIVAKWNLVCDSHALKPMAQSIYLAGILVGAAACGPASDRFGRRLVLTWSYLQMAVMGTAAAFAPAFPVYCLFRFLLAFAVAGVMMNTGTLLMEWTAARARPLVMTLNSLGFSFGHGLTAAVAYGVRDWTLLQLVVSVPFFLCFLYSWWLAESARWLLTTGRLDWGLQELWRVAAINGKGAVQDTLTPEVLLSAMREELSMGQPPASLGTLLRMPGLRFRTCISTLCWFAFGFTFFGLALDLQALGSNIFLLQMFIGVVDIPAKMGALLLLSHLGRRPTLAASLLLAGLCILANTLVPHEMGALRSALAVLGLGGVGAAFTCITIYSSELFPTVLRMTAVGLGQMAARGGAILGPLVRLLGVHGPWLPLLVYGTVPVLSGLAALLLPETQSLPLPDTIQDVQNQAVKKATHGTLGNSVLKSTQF
Kind of assay: Test for inhibition of uric acid transport using human URAT1-expressing cells.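 Also: three stars up to 0.2 µM two stars 0.2-2 µM one star 2-20 µM.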 The format is cell-based. The settings on record: HEK 293 cells expressing human URAT1; 14C-labeled uric acid 25 μM; uptake 37° C. for 5 min. The gist of the method:
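IC50 values reflect inhibition of ¹⁴C-uric acid uptake (25 μM final, 5 min, 37 °C) by compound. Cells were HEK293 stably expressing full-length human URAT1, preincubated in Na-gluconate-substituted HBSS. Radioactivity in lysates was expressed relative to DMSO control as 100%.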
As to `O=C(O)c1c(-c2cccnc2)nc(-c2cccnc2)n1Cc1cc(Cl)ccc1Cl` [Compound A94, 1-(2,5-dichlorobenzyl)-2,4-di(pyridin-3-yl)-1H-imidazole-5-carboxylic acid], the “Inhibitory Activity (IC50 of uric acid transport inhibition)” value (from here on “Inhibitory Activity”) is on record as “* *”.
As for `O=C(O)c1c(Oc2ccc(F)cc2)nc(-c2cccnc2)n1Cc1cc(Cl)ccc1Cl` [Compound A100, 1-(2,5-dichlorobenzyl)-4-(4-fluorophenoxy)-2-(pyridin-3-yl)-1H-imidazole-5-carboxylic acid], the “Inhibitory Activity” value is given as “* * *”.
As to `O=C(O)c1nc(-c2cncc(Cl)c2)n(Cc2cc(Cl)ccc2Cl)c1C(=O)O` [Compound A210, 2-(5-chloropyridin-3-yl)-1-(2,5-dichlorobenzyl)-1H-imidazole-4,5-dicarboxylic acid], the “Inhibitory Activity” value is on record as “* * *”.
As for `O=C(NS(=O)(=O)C1CC1)c1ccc(-c2cccnc2)n1Cc1cccc2ccccc12` [Compound B25, N-(cyclopropylsulfonyl)-1-(naphthalen-1-ylmethyl)-2-(pyridin-3-yl)-1H-pyrrole-5-carboxamide], the “Inhibitory Activity” value is reported as “* * *”.
`O=C(O)c1c(C2CC2)nc(-c2cccnc2)n1Cc1cccc2ccsc12` [Compound A82, 1-(benzo[b]thiophen-7-ylmethyl)-4-cyclopropyl-2-(pyridin-3-yl)-1H-imidazole-5-carboxylic acid]: the “Inhibitory Activity” value is “* *”.
On to `Cc1nc(-c2cncc(F)c2)n(Cc2cc(C(F)(F)F)ccc2C(F)(F)F)c1C(=O)O` [Compound A170, 1-(2,5-bis(trifluoromethyl)benzyl)-2-(5-fluoropyridin-3-yl)-4-methyl-1H-imidazole-5-carboxylic acid], for which the “Inhibitory Activity” value is “* *”.
The same measure, in the same setting: the result for `Cc1nc(-c2cccnc2)n(Cc2csc3cccc(Br)c23)c1C(=O)O` [Compound A8, 1-((4-bromobenzo[b]thiophen-3-yl)methyl)-4-methyl-2-(pyridin-3-yl)-1H-imidazole-5-carboxylic acid] reads “* *”; that for `CS(=O)(=O)NC(=O)c1ccc(-c2cncc(F)c2)n1Cc1cc(Cl)ccc1Cl` [Compound B26, 1-(2,5-dichlorobenzyl)-2-(5-fluoropyridin-3-yl)-N-(methylsulfonyl)-1H-pyrrole-5-carboxamide], “* * *”; that for `CCCN1CCN(Cc2nc(-c3cncc(Cl)c3)n(Cc3cc(Cl)ccc3Cl)c2C(=O)O)CC1` [Compound A202, 2-(5-chloropyridin-3-yl)-1-(2,5-dichlorobenzyl)-4-((4-propylpiperazin-1-yl)methyl)-1H-imidazole-5-carboxylic acid], “* * *”.
Turning to `O=C(O)c1ccc(-c2cccnc2)n1Cc1cccc2cccc(Br)c12` [Compound B6, 1-((8-bromonaphthalen-1-yl)methyl)-2-(pyridin-3-yl)-1H-pyrrole-5-carboxylic acid], the “Inhibitory Activity” value is on record as “* * *”.
On to `CC(C)(O)c1nc(-c2cncc(F)c2)n(Cc2cc(Cl)ccc2Cl)c1C(=O)O` [Compound A212, 1-(2,5-dichlorobenzyl)-2-(5-fluoropyridin-3-yl)-4-(2-hydroxypropan-2-yl)-1H-imidazole-5-carboxylic acid], for which the “Inhibitory Activity” value was “* * *”.

The assay is the same for the next values; noted with them: HEK 293 cells expressing human URAT1; 14C-labeled uric acid 25 μM; uptake 37° C. for 5 min; read-out: Inhibitory Activity (IC50 of uric acid transport inhibition).
The IC50 is the concentration that inhibits the measured activity by half. On to `Cc1nc(-c2ccncc2)n(Cc2cccc3ccccc23)c1C(=O)O` [Compound A239], for which the IC50 lay in the range of 2 to 20 µM.
`Cc1nc(-c2cccnc2)n(Cc2cccc(C(F)(F)F)c2)c1C(=O)O` [Compound A61]: the IC50 was in the range of 2 to 20 µM.
On to `Cc1nc(-c2cncc(OCCCO)c2)n(Cc2cc(Cl)ccc2Cl)c1C(=O)O` [Compound A187], for which the IC50 lay within 2 to 20 µM.
As for `Cc1nc(-c2cncc(F)c2)n(C(C)c2cc(Cl)ccc2Cl)c1C(=O)O` (stereo not drawn) [Compound A222], the IC50 was in the range of 2 to 20 µM.
